Data: US20250129080A1, “COMPOSITIONS AND METHODS OF USING THE SAME FOR TREATMENT OF NEURODEGENERATIVE AND MITOCHONDRIAL DISEASE” (Mitokinin, Inc., priority 2021, published 2025)

What was measured:
[1] = system: HeLa cells expressing mt-Keima and YFP-Parkin (HeLa MKYP); experiment: Human mt-Keima mitophagy assay; assay type: cell-based; settings: 16 hrs with compound, then FCCP/oligomycin for 6 hours, FACS
Protocol: Briefly, HeLa cells expressing mt-Keima and YFP-Parkin (HeLa MKYP) were plated at 10,000 cells/well in 96 well plates along with compounds at various concentrations. Following 16 hrs of incubation, cells were treated with […] FCCP/oligomycin for 6 hours, then analyzed via FACS for the presence of mitochondria in lysosomes (as determined by an emissions spectrum shift from the pH-sensitive mt-Keima tag).

[2] = system: SKOV3 cells; experiment: In vitro mitosafety (glucose/galactose) assay; assay type: cell-based; settings: highest mito-safe dose (gal/glc >0.80, IC20, SKOV3 cells, 20 hours) divided by mt-Keima EC50
Protocol: Briefly, SKOV3 cells (ATCC HTB-77) were plated in DMEM (Corning 10-013-CV) medium containing 25 mM glucose or DMEM with no glucose (Gibco 11966-025) supplemented with 10 mMV galactose at 9,000 cells/well in 96 well plates (Corning costar 3610). 24 hrs later, compounds, in DMSO, were added at various concentrations to a final 0.1% DMSO for all wells. […] After a 15 minute incubation cellular ATP levels were read out using a Promega GloMax® DiscoverMicroplate Reader.
The ratio of relative CellTiter-Glo values from cells grown in galactose to cells grown in glucose was determined (gal/glc ratio). The gal/glc ratio vs concentration is then graphed, and non-linear regression is used to find the highest concentration of MTK compound at which gal/glc >0.80 (the “highest mito-safe dose”, or IC20).

SMILES | EC50 ([1]; Homo sapiens, HeLa) [nM] | Mito-Safety Index (highest safe dose/EC50) [2] | EC50 [1] [nM]
N#C[C@H]1CCN([C@H]2COc3ccccc3[C@@H]2Nc2ncnc3[nH]c(C(F)(F)F)cc23)C1 [EP-0043263, (S)-1-((3R,4S)-4-((6-(Trifluoromethyl)-7H-Pyrrolo[2,3-D]Pyrimidin-4-Yl)Amino)Chroman-3-Yl)Pyrrolidine-3-Carbonitrile] | 97 | 120.52 | 
FC1CN([C@H]2COc3ccccc3[C@@H]2Nc2nccc3[nH]c(C(F)(F)F)cc23)C1 [EP-0043908, N-((3R,4S)-3-(3-fluoroazetidin-1-yl)chroman-4-yl)-2-(trifluoromethyl)-1H-pyrrolo[3,2-c]pyridin-4-amine] | 200 | 125.0 | 
F[C@H]1CCN([C@H]2COc3ccccc3[C@@H]2Nc2ncnc3[nH]c(C(F)(F)F)cc23)C1 [EP-0042972, N-((3R,4S)-3-((S)-3-Fluoropyrrolidin-1-Yl)Chroman-4-Yl)-6-(Trifluoromethyl)-7H-Pyrrolo[2,3-D]Pyrimidin-4-Amine] | 387 | 62.14 | 
F[C@H]1CCN([C@H]2COc3ccccc3[C@@H]2Nc2nccc3[nH]c(C(F)(F)F)cc23)C1 [EP-0043870, N-((3R,4S)-3-((S)-3-fluoropyrrolidin-1-yl)chroman-4-yl)-2-(trifluoromethyl)-1H-pyrrolo[3,2-c]pyridin-4-amine] | 120 | 67.5 | 
FC(F)(F)C1CN([C@H]2COc3ccccc3[C@@H]2Nc2ncnc3[nH]c(C4CC4)cc23)CCO1 (single isomer, unassigned) [EP-0042928] | 170 | 42.17 | 
c1ccc2c(c1)OC[C@H](N1CCC3(CCCO3)C1)[C@H]2Nc1ncnc2[nH]c(C3CC3)cc12 (single isomer, unassigned) [EP-0042934] |  | 55.78 | 35
C[C@@H]1CN([C@H]2COc3c(F)cccc3[C@@H]2Nc2ncnc3[nH]c(C(F)(F)F)cc23)CCO1 [EP-0043827, N-((3R,4S)-8-fluoro-3-((R)-2-methylmorpholino)chroman-4-yl)-6-(trifluoromethyl)-7H-pyrrolo[2,3-d]pyrimidin-4-amine] | 230 | 108.7 | 
c1ccc2c(c1)OC[C@H](N1CCOC3(CC3)C1)[C@H]2Nc1ncnc2[nH]c(C3CC3)cc12 [EP-0042535, N-((3R,4S)-3-(4-Oxa-7-Azaspiro[2.5]Octan-7-Yl)Chroman-4-Yl)-6-Cyclopropyl-7H-Pyrrolo[2,3-D]Pyrimidin-4-Amine] | 244 | 102.55 | 
CC1(C#N)CCN([C@H]2COc3ccccc3[C@@H]2Nc2ncnc3[nH]c(C(F)(F)F)cc23)C1 (single isomer, unassigned) [EP-0043816] | 110 | 75.4 | 
Fc1ccc2c(c1)OC[C@H](N1CC[C@H](F)C1)[C@H]2Nc1ncnc2[nH]c(C(F)(F)F)cc12 [EP-0043839, N-((3R,4S)-7-fluoro-3-((S)-3-fluoropyrrolidin-1-yl)chroman-4-yl)-6-(trifluoromethyl)-7H-pyrrolo[2,3-d]pyrimidin-4-amine] | 480 | 41.3 | 
FC1(F)CCN([C@H]2COc3ccccc3[C@@H]2Nc2ncnc3[nH]c(C4CC4)cc23)C1 [EP-0042660, 6-Cyclopropyl-N-((3R,4S)-3-(3,3-Difluoropyrrolidin-1-Yl)Chroman-4-Yl)-7H-Pyrrolo[2,3-D]Pyrimidin-4-Amine] | 139 | 179.63 | 
C[C@@H]1CCN([C@H]2COc3ccccc3[C@@H]2Nc2ncnc3[nH]c(C(F)(F)F)cc23)C1 [EP-0043821, N-((3R,4S)-3-((R)-3-methylpyrrolidin-1-yl)chroman-4-yl)-6-(trifluoromethyl)-7H-pyrrolo[2,3-d]pyrimidin-4-amine] | 30 | 70.0 | 
FC(F)(F)c1cc2c(N[C@H]3c4ccccc4OC[C@@H]3N3CCCC3)ncnc2[nH]1 [EP-0043440, N-((3R,4S)-3-(Pyrrolidin-1-Yl)Chroman-4-Yl)-6-(Trifluoromethyl)-7H-Pyrrolo[2,3-D]Pyrimidin-4-Amine] | 372 | 60.76 | 
